Reference: US12258327B2, “5-membered heteroaryl-containing aminopyridine compounds as EGFR inhibitors” (YUHAN CORPORATION, priority 2021, dated 2025)
Read-outs that look alike come from different tables or passages of the source.

How the values were obtained:
[1] = target: EGFR L858R/C797S (Homo sapiens, UniProt P00533, C797S/L858R); assay: Biochemical EGFR kinase assay (Lance Ultra TR-FRET), double mutant L858R/C797S
In short: (§1)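 Kinase activity is measured by TR-FRET phosphopeptide detection. Compounds span 0.003 μM to 10 μM; the 1 h reaction at room temperature is quenched with EDTA, then labelled antibody (2 nM) is incubated 60 min before reading.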

[2] = target: EGFR del19/C797S (Homo sapiens, UniProt P00533, C797S/DEL746-750); assay: Biochemical EGFR kinase assay (Lance Ultra TR-FRET), double mutant del19/C797S
In short: as §1

[3] = target: EGFR del19/T790M/C797S (Homo sapiens, UniProt P00533, C797S/DEL746-750/T790M); assay: Biochemical EGFR kinase assay (Lance Ultra TR-FRET), triple mutant del19/T790M/C797S
In short: as §1

[4] = target: EGFR wildtype (WT) (Homo sapiens, UniProt P00533); assay: Biochemical EGFR kinase assay (Lance Ultra TR-FRET), wildtype
In short: as §1

[5] = target: EGFR L858R/T790M/C797S (Homo sapiens, UniProt P00533, C797S/L858R/T790M); assay: Biochemical EGFR kinase assay (Lance Ultra TR-FRET), triple mutant L858R/T790M/C797S
In short: as §1

[6] = IC50 L858R/C797S (nM) 100 μM ATP, 100 μM ATP
[7] = Km ATP, read-out: IC50 L858R/C797S (nM) Km ATP
[8] = IC50 del19/C797S (nM) 100 μM ATP, 100 μM ATP
[9] = Km ATP, read-out: IC50 del19/C797S (nM) Km ATP
[10] = IC50 del19/T790M/C797S (nM) 100 μM ATP, 100 μM ATP
[11] = Km ATP, read-out: IC50 del19/T790M/C797S (nM) Km ATP
[12] = IC50 WT (nM) 100 μM ATP, 100 μM ATP
[13] = Km ATP, read-out: IC50 WT (nM) Km ATP
[14] = IC50 L858R/T790M/C797S (nM) 100 μM ATP, 100 μM ATP
[15] = Km ATP, read-out: IC50 L858R/T790M/C797S (nM) Km ATP

Sequence of EGFR L858R/C797S (P00533 25-1210 C797S/L858R): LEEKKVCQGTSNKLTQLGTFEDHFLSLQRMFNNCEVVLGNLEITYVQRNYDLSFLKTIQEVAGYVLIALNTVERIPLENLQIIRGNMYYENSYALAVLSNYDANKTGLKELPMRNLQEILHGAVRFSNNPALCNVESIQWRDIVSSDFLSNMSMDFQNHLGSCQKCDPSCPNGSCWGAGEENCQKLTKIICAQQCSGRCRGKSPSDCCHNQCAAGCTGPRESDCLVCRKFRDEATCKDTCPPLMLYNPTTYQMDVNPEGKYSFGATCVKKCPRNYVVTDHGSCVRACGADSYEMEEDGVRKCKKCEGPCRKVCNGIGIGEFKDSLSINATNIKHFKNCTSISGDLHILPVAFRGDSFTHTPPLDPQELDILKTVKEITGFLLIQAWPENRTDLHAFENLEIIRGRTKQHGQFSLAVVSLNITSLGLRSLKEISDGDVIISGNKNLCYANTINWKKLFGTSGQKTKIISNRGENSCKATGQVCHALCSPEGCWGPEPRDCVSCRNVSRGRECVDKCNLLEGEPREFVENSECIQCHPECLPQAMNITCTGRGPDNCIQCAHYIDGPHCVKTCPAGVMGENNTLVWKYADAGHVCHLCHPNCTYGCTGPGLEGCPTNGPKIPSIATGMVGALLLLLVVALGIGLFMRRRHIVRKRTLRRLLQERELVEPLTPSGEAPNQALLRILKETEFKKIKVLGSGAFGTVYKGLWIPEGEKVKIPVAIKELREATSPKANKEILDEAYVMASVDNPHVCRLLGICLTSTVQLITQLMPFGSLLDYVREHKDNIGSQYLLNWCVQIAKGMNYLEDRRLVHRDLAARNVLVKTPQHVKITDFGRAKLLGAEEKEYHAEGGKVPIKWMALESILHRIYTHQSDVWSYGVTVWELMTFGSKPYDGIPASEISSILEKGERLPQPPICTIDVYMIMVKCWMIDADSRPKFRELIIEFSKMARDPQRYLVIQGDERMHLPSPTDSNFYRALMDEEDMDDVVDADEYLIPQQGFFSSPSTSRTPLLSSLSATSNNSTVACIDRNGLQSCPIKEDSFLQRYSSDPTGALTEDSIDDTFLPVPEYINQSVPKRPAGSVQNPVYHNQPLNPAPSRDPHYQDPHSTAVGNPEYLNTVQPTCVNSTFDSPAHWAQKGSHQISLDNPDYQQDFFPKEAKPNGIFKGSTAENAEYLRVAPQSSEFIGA
Sequence of EGFR L858R/T790M/C797S (P00533 25-1210 T790M/C797S/L858R): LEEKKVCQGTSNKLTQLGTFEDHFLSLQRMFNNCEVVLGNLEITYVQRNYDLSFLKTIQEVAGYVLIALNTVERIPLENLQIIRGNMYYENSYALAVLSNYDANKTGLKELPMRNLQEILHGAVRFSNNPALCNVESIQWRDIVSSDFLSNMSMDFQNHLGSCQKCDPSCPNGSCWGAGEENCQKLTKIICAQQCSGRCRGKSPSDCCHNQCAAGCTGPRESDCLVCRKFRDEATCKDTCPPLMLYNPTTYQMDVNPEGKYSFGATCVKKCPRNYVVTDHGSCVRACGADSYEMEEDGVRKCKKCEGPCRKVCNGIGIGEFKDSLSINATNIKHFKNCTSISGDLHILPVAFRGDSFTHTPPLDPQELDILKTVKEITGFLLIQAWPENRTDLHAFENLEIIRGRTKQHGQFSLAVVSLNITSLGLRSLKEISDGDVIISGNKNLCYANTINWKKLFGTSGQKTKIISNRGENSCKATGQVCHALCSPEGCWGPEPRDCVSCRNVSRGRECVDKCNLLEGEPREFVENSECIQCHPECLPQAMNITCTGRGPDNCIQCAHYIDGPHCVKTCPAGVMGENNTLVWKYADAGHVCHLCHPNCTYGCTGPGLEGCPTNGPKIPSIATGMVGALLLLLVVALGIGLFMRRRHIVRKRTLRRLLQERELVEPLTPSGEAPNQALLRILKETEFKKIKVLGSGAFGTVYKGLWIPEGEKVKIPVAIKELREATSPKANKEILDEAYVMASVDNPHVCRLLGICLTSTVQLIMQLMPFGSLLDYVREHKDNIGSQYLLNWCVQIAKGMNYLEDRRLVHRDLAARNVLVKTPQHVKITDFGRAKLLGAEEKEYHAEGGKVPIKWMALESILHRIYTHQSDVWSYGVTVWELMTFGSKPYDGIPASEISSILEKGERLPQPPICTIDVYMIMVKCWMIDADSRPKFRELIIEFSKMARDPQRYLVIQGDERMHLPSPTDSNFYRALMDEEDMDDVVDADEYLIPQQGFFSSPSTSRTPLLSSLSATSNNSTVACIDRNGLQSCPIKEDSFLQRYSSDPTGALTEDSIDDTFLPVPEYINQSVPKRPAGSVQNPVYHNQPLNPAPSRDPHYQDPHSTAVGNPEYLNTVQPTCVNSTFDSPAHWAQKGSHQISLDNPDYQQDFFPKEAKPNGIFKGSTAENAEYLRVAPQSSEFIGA
Sequence of EGFR del19/C797S (P00533 with tags, fused parts or gaps DEL746-750/C797S): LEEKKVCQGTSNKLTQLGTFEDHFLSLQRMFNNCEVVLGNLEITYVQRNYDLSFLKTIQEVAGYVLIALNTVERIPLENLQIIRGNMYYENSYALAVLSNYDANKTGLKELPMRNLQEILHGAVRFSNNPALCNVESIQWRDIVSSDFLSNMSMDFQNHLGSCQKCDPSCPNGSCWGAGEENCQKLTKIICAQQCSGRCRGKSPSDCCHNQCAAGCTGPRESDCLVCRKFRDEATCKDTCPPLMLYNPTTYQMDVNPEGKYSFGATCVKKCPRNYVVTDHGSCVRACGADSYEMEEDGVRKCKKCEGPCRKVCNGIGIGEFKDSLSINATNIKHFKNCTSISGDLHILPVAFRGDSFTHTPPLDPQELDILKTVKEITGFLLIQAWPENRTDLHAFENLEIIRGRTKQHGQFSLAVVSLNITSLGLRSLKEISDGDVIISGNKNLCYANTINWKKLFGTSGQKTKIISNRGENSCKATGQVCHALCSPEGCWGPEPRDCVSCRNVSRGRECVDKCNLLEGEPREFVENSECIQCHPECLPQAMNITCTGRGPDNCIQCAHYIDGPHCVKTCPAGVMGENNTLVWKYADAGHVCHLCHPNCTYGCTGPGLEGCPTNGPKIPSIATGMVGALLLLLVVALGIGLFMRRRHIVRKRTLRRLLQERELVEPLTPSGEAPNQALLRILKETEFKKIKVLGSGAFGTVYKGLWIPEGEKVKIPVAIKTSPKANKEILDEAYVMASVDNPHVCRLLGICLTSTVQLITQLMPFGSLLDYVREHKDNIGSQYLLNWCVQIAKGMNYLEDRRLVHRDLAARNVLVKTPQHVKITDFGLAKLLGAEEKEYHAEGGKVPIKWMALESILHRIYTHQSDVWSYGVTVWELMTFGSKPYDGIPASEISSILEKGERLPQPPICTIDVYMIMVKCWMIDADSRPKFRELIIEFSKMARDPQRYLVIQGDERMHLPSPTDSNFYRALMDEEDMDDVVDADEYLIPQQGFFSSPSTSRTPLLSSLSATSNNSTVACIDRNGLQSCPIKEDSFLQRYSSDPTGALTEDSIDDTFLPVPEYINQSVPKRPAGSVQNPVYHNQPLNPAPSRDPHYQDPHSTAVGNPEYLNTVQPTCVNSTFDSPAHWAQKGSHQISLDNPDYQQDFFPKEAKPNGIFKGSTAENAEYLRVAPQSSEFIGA
Sequence of EGFR wildtype (WT) (P00533 25-1210): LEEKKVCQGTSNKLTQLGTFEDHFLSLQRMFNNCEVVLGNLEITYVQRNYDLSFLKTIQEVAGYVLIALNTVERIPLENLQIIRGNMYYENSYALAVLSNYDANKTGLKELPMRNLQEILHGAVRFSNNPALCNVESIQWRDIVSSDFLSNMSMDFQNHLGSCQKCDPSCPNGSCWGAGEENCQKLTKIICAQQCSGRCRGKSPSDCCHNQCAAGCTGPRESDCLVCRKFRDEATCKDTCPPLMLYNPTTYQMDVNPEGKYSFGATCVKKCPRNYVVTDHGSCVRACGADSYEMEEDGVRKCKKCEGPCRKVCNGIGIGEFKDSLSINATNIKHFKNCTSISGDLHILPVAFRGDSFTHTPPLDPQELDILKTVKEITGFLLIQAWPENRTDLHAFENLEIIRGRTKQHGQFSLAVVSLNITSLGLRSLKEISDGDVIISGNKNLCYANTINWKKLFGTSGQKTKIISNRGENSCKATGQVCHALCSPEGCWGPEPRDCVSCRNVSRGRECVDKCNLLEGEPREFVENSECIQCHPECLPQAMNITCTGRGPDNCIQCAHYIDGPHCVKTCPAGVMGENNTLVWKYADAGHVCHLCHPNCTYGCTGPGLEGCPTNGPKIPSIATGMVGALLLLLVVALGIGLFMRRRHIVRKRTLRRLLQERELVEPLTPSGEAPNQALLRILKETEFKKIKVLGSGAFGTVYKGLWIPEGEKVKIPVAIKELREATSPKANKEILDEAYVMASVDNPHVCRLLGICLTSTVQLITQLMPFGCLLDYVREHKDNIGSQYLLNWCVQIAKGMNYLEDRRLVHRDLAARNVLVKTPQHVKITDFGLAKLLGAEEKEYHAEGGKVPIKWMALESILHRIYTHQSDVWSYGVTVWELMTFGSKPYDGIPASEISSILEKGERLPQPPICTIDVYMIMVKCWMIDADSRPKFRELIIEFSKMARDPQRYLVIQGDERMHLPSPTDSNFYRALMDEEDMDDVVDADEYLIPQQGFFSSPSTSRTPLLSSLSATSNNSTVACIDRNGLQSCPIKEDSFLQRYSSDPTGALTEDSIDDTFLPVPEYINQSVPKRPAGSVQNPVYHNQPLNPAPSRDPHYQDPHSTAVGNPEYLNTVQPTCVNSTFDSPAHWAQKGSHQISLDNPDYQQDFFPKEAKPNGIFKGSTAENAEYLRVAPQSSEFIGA

Row | Compound | IC50 [1, 6] | IC50 [1, 7] | IC50 [2, 8] | IC50 [2, 9] | IC50 [3, 10] | IC50 [3, 11] | IC50 [4, 12] | IC50 [4, 13] | IC50 [5, 14] | IC50 [5, 15] | IC50 ([1]; read-out: IC50 L858R/C797S (nM) 100 μM ATP, 100 μM ATP) | IC50 ([2]; read-out: IC50 del19/C797S (nM) 100 μM ATP, 100 μM ATP) | IC50 ([3]; read-out: IC50 del19/T790M/C797S (nM) 100 μM ATP, 100 μM ATP) | IC50 ([4]; read-out: IC50 WT (nM) 100 μM ATP, 100 μM ATP) | IC50 ([5]; read-out: IC50 L858R/T790M/C797S (nM) 100 μM ATP, 100 μM ATP)
1 | CS(=O)(=O)n1ccc(-c2nccc(Nc3cc(N[C@H]4CC[C@@](C)(O)CC4)c(-c4ccn(C(F)F)n4)cn3)n2)c1 [Example 108, (1s,4s)-4-((5-(1-(Difluoromethyl)-1H-pyrazol-3-yl)-2-((2-(1-(methylsulfonyl)-1H-pyrrol-3-yl)pyrimidin-4-yl)amino)pyridin-4-yl)amino)-1-methylcyclohexan-1-ol] |  | 2 nM |  | 23.7 nM |  | 1.2 nM |  | 57.2 nM |  | 0.5 nM |  |  |  |  | 
2 | CN(C)S(=O)(=O)n1ccc(-c2nccc(Nc3cc(N[C@H]4CC[C@@](C)(O)CC4)c(-c4ccn(C(F)F)n4)cn3)n2)c1 [Example 109, 3-(4-((5-(1-(Difluoromethyl)-1H-pyrazol-3-yl)-4-(((1s,4s)-4-hydroxy-4-methylcyclohexyl)amino)pyridin-2-yl)amino)pyrimidin-2-yl)-N,N-dimethyl-1H-pyrrole-1-sulfonamide] |  | 14.5 nM |  | 178 nM |  | 9.5 nM |  | 538 nM |  | 2.2 nM |  |  |  |  | 
3 | CO[C@H]1CCN(c2nccc(Nc3cc(N[C@H]4CC[C@@](C)(O)CC4)c(-c4ccn(C(F)F)n4)cn3)n2)C[C@H]1F [Example 111, (1s,4s)-4-((5-(1-(Difluoromethyl)-1H-pyrazol-3-yl)-2-((2-((3R,4S)-3-fluoro-4-methoxypiperidin-1-yl)pyrimidin-4-yl)amino)pyridin-4-yl)amino)-1-methylcyclohexan-1-ol] | 67.2 nM | 19.7 nM | 253 nM | 86.8 nM | 1.6 nM | 1.4 nM | > 10000 nM | 53.7 nM | 0.2 nM | 0.1 nM |  |  |  |  | 
4 | CS(=O)(=O)n1cc(-c2nccc(Nc3cc(N[C@H]4CC[C@@](C)(O)CC4)c(-c4ccn(C(F)F)n4)cn3)n2)cn1 [Example 112, (1s,4s)-4-((5-(1-(Difluoromethyl)-1H-pyrazol-3-yl)-2-((2-(1-(methylsulfonyl)-1H-pyrazol-4-yl)pyrimidin-4-yl)amino)pyridin-4-yl)amino)-1-methylcyclohexan-1-ol] |  | 34.9 nM |  | 34.5 nM |  | 1.2 nM |  | 220 nM |  | 0.5 nM | 60.7 nM | 75.4 nM | 2.1 nM | > 10000 nM | 4.9 nM
5 | C[C@]1(O)CC[C@@H](Nc2cc(Nc3ccnc(-c4ccc(F)nc4)n3)ncc2-c2ccn(C(F)F)n2)CC1 [Example 113, (1s,4s)-4-((5-(1-(Difluoromethyl)-1H-pyrazol-3-yl)-2-((2-(6-fluoropyridin-3-yl)pyrimidin-4-yl)amino)pyridin-4-yl)amino)-1-methylcyclohexan-1-ol] | 483 nM |  | 606 nM |  | 17.5 nM |  | > 10000 nM | > 10000 nM | 186 nM |  |  |  |  |  | 
6 | C=CCn1cc(-c2nccc(Nc3cc(N[C@H]4CC[C@@](C)(O)CC4)c(-c4ccn(C(F)F)n4)cn3)n2)cn1 [Example 116, (1s,4s)-4-((2-((2-(1-Allyl-1H-pyrazol-4-yl)pyrimidin-4-yl)amino)-5-(1-(difluoromethyl)-1H-pyrazol-3-yl)pyridin-4-yl)amino)-1-methylcyclohexan-1-ol] |  | 5 nM |  | 27.6 nM |  | 0.6 nM |  | 77.2 nM |  | 0.7 nM |  |  |  |  | 
7 | C=CCCS(=O)(=O)n1cc(-c2nccc(Nc3cc(N[C@H]4CC[C@@](C)(O)CC4)c(-c4ccn(C(F)F)n4)cn3)n2)cn1 [Example 117, (1s,4s)-4-((2-((2-(1-(But-3-en-1-ylsulfonyl)-1H-pyrazol-4-yl)pyrimidin-4-yl)amino)-5-(1-(difluoromethyl)-1H-pyrazol-3-yl)pyridin-4-yl)amino)-1-methylcyclohexan-1-ol] |  | 0.2 nM |  | 0.8 nM |  | 0.5 nM |  | 1.6 nM |  | 0.5 nM |  |  |  |  | 
8 | C[C@]1(O)CC[C@@H](Nc2cc(Nc3ccnc(-c4cnn(S(=O)(=O)C5CC5)c4)n3)ncc2-c2csc(N3CCOCC3)n2)CC1 [Example 120, (1s,4s)-4-((2-((2-(1-(Cyclopropylsulfonyl)-1H-pyrazol-4-yl)pyrimidin-4-yl)amino)-5-(2-morpholinothiazol-4-yl)pyridin-4-yl)amino)-1-methylcyclohexan-1-ol] | 41.7 nM | 3 nM | 2.3 nM | 1.4 nM | 0.9 nM | 0.6 nM | > 10000 nM | 29.7 nM | 0.9 nM | 0.3 nM |  |  |  |  | 
9 | O=S(=O)(C1CC1)n1cc(-c2nccc(Nc3cc(N[C@H]4CC[C@@H](NCCF)CC4)c(-c4nc(C(F)F)cs4)cn3)n2)cn1 [Example 123, N^2-(2-(1-(Cyclopropylsulfonyl)-1H-pyrazol-4-yl)pyrimidin-4-yl)-5-(4-(difluoromethyl)thiazol-2-yl)-N^4-((1s,4s)-4-((2-fluoroethyl)amino)cyclohexyl)pyridine-2,4-diamine] | 22.5 nM | 1.9 nM | 1.3 nM | 1.4 nM | 0.2 nM | 0.3 nM | > 10000 nM | 21.6 nM | 0.2 nM | 0.1 nM |  |  |  |  | 

Next, values leading:

Row | IC50 [1, 6] | IC50 [1, 7] | IC50 [2, 8] | IC50 [2, 9] | IC50 [3, 10] | IC50 [3, 11] | IC50 [4, 12] | IC50 [4, 13] | IC50 [5, 14] | IC50 [5, 15] | IC50 ([1]; read-out: IC50 L858R/C797S (nM) 100 μM ATP, 100 μM ATP) | IC50 ([2]; read-out: IC50 del19/C797S (nM) 100 μM ATP, 100 μM ATP) | IC50 ([3]; read-out: IC50 del19/T790M/C797S (nM) 100 μM ATP, 100 μM ATP) | IC50 ([4]; read-out: IC50 WT (nM) 100 μM ATP, 100 μM ATP) | IC50 ([5]; read-out: IC50 L858R/T790M/C797S (nM) 100 μM ATP, 100 μM ATP) | Compound
10 | 453 nM | 19 nM | 22.7 nM | 19.6 nM | 3.9 nM | 3.9 nM | 9960 nM | 46.9 nM | 2.6 nM |  |  |  |  |  |  | CC1(C)CC(Nc2cc(Nc3ccnc(-c4cnn(S(=O)(=O)C5CC5)c4)n3)ncc2-c2ccn(C(F)F)n2)CCC1O (stereo not shown) [Example 106, 4-((2-((2-(1-(Cyclopropylsulfonyl)-1H-pyrazol-4-yl)pyrimidin-4-yl)amino)-5-(1-(difluoromethyl)-1H-pyrazol-3-yl)pyridin-4-yl)amino)-2,2-dimethylcyclohexan-1-ol]
11 | 346 nM |  | 113 nM |  | 2.7 nM |  | > 10000 nM |  | 4.6 nM |  |  |  |  |  |  | C[C@]1(O)CCCN(c2cc(Nc3ccnc(-c4cnn(S(=O)(=O)C5CC5)c4)n3)ncc2-c2ccn(C(F)F)n2)C1 [Example 107, (S)-1-(2-((2-(1-(Cyclopropylsulfonyl)-1H-pyrazol-4-yl)pyrimidin-4-yl)amino)-5-(1-(difluoromethyl)-1H-pyrazol-3-yl)pyridin-4-yl)-3-methylpiperidin-3-ol]
12 |  | 23.7 nM |  | 24.7 nM |  | 2.5 nM |  | 34.5 nM |  | 1.9 nM |  |  |  |  |  | O=S(=O)(C1CC1)n1cc(-c2nccc(Nc3cc(NC4CCC(O)(C5CC5)CC4)c(-c4ccn(C(F)F)n4)cn3)n2)cn1 (stereo not shown) [Example 110, 1-Cyclopropyl-4-((2-((2-(1-(cyclopropylsulfonyl)-1H-pyrazol-4-yl)pyrimidin-4-yl)amino)-5-(1-(difluoromethyl)-1H-pyrazol-3-yl)pyridin-4-yl)amino)cyclohexan-1-ol]
13 | 3.6 nM | 0.2 nM | 0.2 nM | 0.3 nM | 0.2 nM | 0.2 nM | 1320 nM | 4.9 nM | 0.3 nM | 0.1 nM |  |  |  |  |  | Cn1ccc(-c2cnc(Nc3ccnc(-c4cnn(S(=O)(=O)C5CC5)c4)n3)cc2NC[C@H]2CC[C@@H](O)C2)n1 [Example 118, (1R,3S)-3-(((2-((2-(1-(Cyclopropylsulfonyl)-1H-pyrazol-4-yl)pyrimidin-4-yl)amino)-5-(1-methyl-1H-pyrazol-3-yl)pyridin-4-yl)amino)methyl)cyclopentan-1-ol]
14 | 15.1 nM | 0.4 nM | 0.5 nM | 0.5 nM | 0.4 nM | 0.4 nM | > 10000 nM | 6.1 nM | 0.6 nM | 0.1 nM |  |  |  |  |  | O=S(=O)(C1CC1)n1cc(-c2nccc(Nc3cc(NC[C@H]4CC[C@@H](O)C4)c(-c4ccn(C(F)F)n4)cn3)n2)cn1 [Example 119, (1R,3S)-3-(((2-((2-(1-(Cyclopropylsulfonyl)-1H-pyrazol-4-yl)pyrimidin-4-yl)amino)-5-(1-(difluoromethyl)-1H-pyrazol-3-yl)pyridin-4-yl)amino)methyl)cyclopentan-1-ol]
15 | 9.6 nM | 0.5 nM | 0.6 nM | 0.4 nM | 0.2 nM | 0.1 nM | 801 nM | 1.1 nM | 0.1 nM | 0.1 nM |  |  |  |  |  | Cn1ccc(-c2cnc(Nc3ccnc(-c4cnn(S(=O)(=O)C5CC5)c4)n3)cc2N[C@H]2CC[C@@H](N(C)C)CC2)n1 [Example 124, N^2-(2-(1-(Cyclopropylsulfonyl)-1H-pyrazol-4-yl)pyrimidin-4-yl)-N^4-((1s,4s)-4-(dimethylamino)cyclohexyl)-5-(1-methyl-1H-pyrazol-3-yl)pyridine-2,4-diamine]
